Data set [1] addresses T1, MBP-HTT(1-89)Q46-His(6×) (Exon1-Q46) protein aggregates (Homo sapiens, UniProt P42858, INS38QQQQQQQQQQQQQQQQQQQQQQQQQ).
T1 construct: MBP-HTT(1-89)Q46-His(6×); His(6×) (C); made in house
Put plainly: Exon1-Q46 radioligand binding assay (RBA). To be noted: aggregated Exon1-Q46 1 μM; 0.3 nM ligand [3H3-methyl]-5-((5-methoxypyridin-2-yl)methoxy)-2-(pyrazin-2-yl)benzo[d]oxazole; 60 minutes at 37° C.; read-out: Potency Range (IC50). The method, then: Exon1-Q46 Radioligand Binding Assay
For radioligand binding assays (RBA) MBP-HTT(1-89)Q46-His(6×) (“Exon1-Q46”) protein was generated based on a previous publication (Scherzinger et al. Cell, Vol. 90, 549-558, Aug. 8, 1997). For experiments 30 μM MBP-Exon1-Q46 was incubated with 150 μg/mL thrombin in assay buffer (150 mM NaCl, 50 mM Tris pH 8.0) and 2 mM CaCl2 for 16 hours at 37° C. Aggregated Exon1-Q46 was pelleted by centrifugation for 5 minutes at 13,000 rpm in a bench top centrifuge and re-dissolved in the same volume of assay buffer. Test compounds were prepared by titration in DMSO at 11 concentrations from 63 μM to 2 nM. For the RBA, Exon1-Q46 protein aggregates and test compounds were pre-incubated in assay buffer for 20 minutes at room temperature, in 100 μL/well in a 96-well plate (pp, round bottom). Then, ligand was added in 50 μL/well and incubated for 60 minutes at 37° C. Final assay concentrations were 1 μM to 30 pM test compound, 1 μM Exon1-Q46 protein (equivalent monomer concentration) and 0.3 nM ligand [^3H3-methyl]-5-((5-methoxypyridin-2-yl)methoxy)-2-(pyrazin-2-yl)benzo[d]oxazole. Samples were transferred onto GF/B filter plates and washed 2× with 200 μL PBS using a Filtermate Harvester. After drying filter plates for 1 hour at 55° C., the back of the plates were sealed with foil and 30 μL/well scintillation fluid (Packard MicroScint 40) added, incubated for 15 minutes in the dark and counted in a MicroBeta reader. For analysis, replicate data from independent assay plates were normalized towards 0% and 100% inhibition using control wells of vehicle (0% inhibition) and 1 μM unlabelled [^3H3-methyl]-5-((5-methoxypyridin-2-yl)methoxy)-2-(pyrazin-2-yl)benzo[d]oxazole (100% inhibition). IC50 values were determined with a sigmoidal inhibition model with four variables (top, bottom, slope, IC50) in a global fit using the normalized replicate data.
The results for various example compounds were as provided in the table below (+++<100 nM; ++100−500 nM; +>500 nM; ND: not determined): […]

Data set [2] is described as follows: Unbound brain fraction (fu,brain) in mouse brain by equilibrium dialysis. The following applies: 20% mouse brain homogenate, 5 μM, equilibrium dialysis 6 h at 37° C., average of triplicate. In kind it is in vitro ADME. On the procedure:
Compounds were tested for unbounded brain fraction (or free fraction in brain, fu,brain). It is an accepted standard in the CNS PET imaging field that compounds with low unbound fraction in brain (<5%) likely have high non-specific binding background that is undesirable for the detection of target binding. As a result, fu,brain is an important property in the design of PET ligands for brain imaging [see Zhang et al., Design and selection parameters to accelerate the discovery of novel central nervous system positron emission tomography (PET) ligands and their application in the development of a novel phosphodiesterase 2A PET ligand. J Med Chem 2013, 56 (11), 4568-79; Liu et al., Imaging Mutant Huntingtin Aggregates: Development of a Potential PET Ligand. J Med Chem 2020, 63 (15), 8608-8633].
Determining fu,brain in Mouse Brain by Equilibrium Dialysis. Dialysis membranes (12-14 kDa) (HTDialysis, Connecticut) were soaked in phosphate buffer (10 mM potassium phosphate and 0.8% sodium chloride buffer, pH 7.4 at 37° C.) for a minimum of 1 h, at this time ethanol was added (final concentration of 20% v/v) and membranes continued to soak for 30 min Mouse brain tissue was diluted in phosphate buffer in a […] (w/v) and homogenised using a Precellys 24 (Stretton Scientific, UK) to achieve a final concentration of 20% brain homogenate.
Test compounds prepared as DMSO stocks at 0.5 mM are diluted into brain homogenate to achieve 5 μM final substrate concentration (1% DMSO) and a t=0 sample was prepared by sampling 50 μL of into 400 μL of quench solution (Acetonitrile containing 0.1% formic acid and sulfisoxazole/tolbutamide/imipramine/labetalol 200 nM). Samples were matrix matched with the addition of 50 μL of assay buffer. The HTDialysis Teflon blocks (HTDialysis, Connecticut) were assembled with pre-soaked membrane between each receiver and donor well and clamped in the stainless steel pressure plate (HTDialysis, Connecticut). The lower compartment (acceptor side) was dosed with 120 μL of buffer and the upper compartment (donor side) was dosed with 120 μL of compound in homogenate. All test compounds and controls were completed in triplicate. The HT dialysis plate was sealed and incubated for 6 h at 37° C. shaking at 250 rpm.
Following the incubation, 50 μL of sample was removed from all donor and acceptor wells and transferred into a quench plate containing 400 μL of quench solution. All samples were matrix matched with 50 μL of the alternate blank matrix. Analytical samples were diluted 1:1 with water using the Janus Robot and analysed by LC-MS/MS.
Peak areas of donor and acceptor compartments were compared to determine percent unbound (% fu) and the average of triplicate measurements was reported. Reference T0 sample was used to calculate sample recovery (%). Control compounds were compared with historic and literature values to ensure assay functionality.
(In general: In equilibrium dialysis only unbound substance equilibrates across the membrane.)

Experimental findings from patent US12661415B2, “Isoindolinone compounds and imaging agents for imaging Huntingtin protein” (CHDI Foundation, Inc., priority 2021, dated 2026) are described below.

T1 sequence (P42858 with tags, fused parts or gaps with the stated changes): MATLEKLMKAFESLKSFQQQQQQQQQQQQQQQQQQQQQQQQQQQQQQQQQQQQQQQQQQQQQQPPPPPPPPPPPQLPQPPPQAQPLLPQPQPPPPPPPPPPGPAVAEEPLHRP

As usually defined, the IC50 is the concentration that inhibits the measured activity by half. Take `Cn1nc(N2Cc3cc(O)ccc3C2=O)ccc1=O` [Compound 1-5, 5-Hydroxy-2-(1-methyl-6-oxo-1,6-dihydropyridazin-3-yl)-2,3-dihydro-1H-isoindol-1-one]: the IC50 in data set [1] was less than 0.1 µM.

Turning to `Cn1nc(N2Cc3cc(OCc4ccc(OCCF)cn4)ccc3C2=O)ccc1=O` [Compound 2-1, 5-{[5-(2-Fluoroethoxy)pyridin-2-yl]methoxy}-2-(1-methyl-6-oxo-1,6-dihydro-pyridazin-3-yl)-2,3-dihydro-1H-isoindol-1-one], the “Mean Free Brain Fraction (%)” value in data set [2] is reported as 14.3%. In addition, in data set [1], the IC50 is less than 0.1 µM.

With `COc1ccc(COc2cnc3c(c2)CN(c2ccc(=O)n(C)n2)C3=O)nc1` [Compound 12-5, 6-{3-[(5-Methoxypyridin-2-yl)methoxy]-7-oxo-5H,6H,7H-pyrrolo[3,4-b]pyridin-6-yl}-2-methyl-2,3-dihydropyridazin-3-one], the “Mean Free Brain Fraction (%)” value in data set [2] is given as 37.0%. The half-maximal inhibitory concentration (IC50) in data set [1] was less than 0.1 µM.

On to `COc1ccc(COc2cc3c(cc2F)CN(c2cnc(OC)cn2)C3=O)nc1` [Compound 14-2, 5-Fluoro-2-(5-methoxypyrazin-2-yl)-6-((5-methoxypyridin-2-yl)-methoxy)isoindolin-1-one], for which, in data set [2], the “Mean Free Brain Fraction (%)” value is on record as 0.7%. Also, the IC50 in data set [1] is less than 0.1 µM.

Turning to `COc1ccc(COc2cc3c(cc2F)CN(c2cn(C)c(=O)cn2)C3=O)nc1` [Compound 14-1, 5-Fluoro-6-((5-methoxypyridin-2-yl)methoxy)-2-(4-methyl-5-oxo-4,5-dihydropyrazin-2-yl)isoindolin-1-one], the “Mean Free Brain Fraction (%)” value in data set [2] is reported as 15.5%. Further, the IC50 in data set [1] is less than 0.1 µM.

Consider `COc1cnc(COc2ccc3c(c2)CN(c2ccc(=O)n(C)n2)C3=O)cc1F` [Compound 1-14, 5-[(4-Fluoro-5-methoxypyridin-2-yl)methoxy]-2-(1-methyl-6-oxo-1,6-dihydropyridazin-3-yl)-2,3-dihydro-1H-isoindol-1-one], for which the “Mean Free Brain Fraction (%)” value in data set [2] is 12.0%.

`COc1ccc(COc2cc3c(cc2F)CN(c2ccc(=O)[nH]n2)C3=O)nc1` [Compound 13-2, 5-Fluoro-6-[(5-methoxy-2-pyridyl)methoxy]-2-(6-oxo-1H-pyridazin-3-yl)isoindolin-1-one]: the “Mean Free Brain Fraction (%)” value in data set [2] is 6.5%. In addition, the IC50 in data set [1] is less than 0.1 µM.

In the case of `COc1ccc(COc2cc(F)c3c(c2)C(=O)N(c2ccc(=O)[nH]n2)C3)nc1` [Compound 13-3, 4-Fluoro-6-[(5-methoxy-2-pyridyl)methoxy]-2-(6-oxo-1H-pyridazin-3-yl)isoindolin-1-one], the “Mean Free Brain Fraction (%)” value in data set [2] is recorded as 6.2%. For the same compound, in data set [1], the IC50 was less than 0.1 µM.

Turning to `COc1ccc(COc2cc3c(cc2F)C(=O)N(c2ccc(=O)n(C)n2)C3)nc1` [Compound 12-1, 6-Fluoro-5-[(5-methoxypyridin-2-yl)methoxy]-2-(1-methyl-6-oxo-1,6-dihydropyridazin-3-yl)-2,3-dihydro-1H-isoindol-1-one], the “Mean Free Brain Fraction (%)” value in data set [2] was determined as 7.1%. Besides, the IC50 in data set [1] was less than 0.1 µM.

With `Cn1nc(N2Cc3cc(OCc4ccc(F)cn4)cnc3C2=O)ccc1=O` [Compound 12-7, 6-{3-[(5-Fluoropyridin-2-yl)methoxy]-7-oxo-5H,6H,7H-pyrrolo[3,4-b]pyridin-6-yl}-2-methyl-2,3-dihydropyridazin-3-one], the “Mean Free Brain Fraction (%)” value in data set [2] turned out to be 67.8%. The IC50 in data set [1] was less than 0.1 µM.

Consider `[2H]C([2H])(F)C([2H])([2H])Oc1ccc(COc2ccc3c(c2)CN(c2ccc(=O)n(C)n2)C3=O)nc1` [Compound 1-8, 5-({5-[2-Fluoro(1,1,2,2-^2H4)ethoxy]pyridin-2-yl}methoxy)-2-(1-methyl-6-oxo-1,6-dihydropyridazin-3-yl)-2,3-dihydro-1H-isoindol-1-one], for which the “Mean Free Brain Fraction (%)” value in data set [2] worked out at 10.1%. The IC50 in data set [1] is less than 0.1 µM.

Turning to `[2H]C([2H])(Oc1ccc(COc2ccc3c(c2)CN(c2ccc(=O)n(C)n2)C3=O)nc1)C([2H])([2H])OS(=O)(=O)c1ccc(C)cc1` [Compound 1-9, 2-{[6-({[2-(1-Methyl-6-oxo-1,6-dihydropyridazin-3-yl)-1-oxo-2,3-dihydro-1H-isoindol-5-yl]oxy}methyl)pyridin-3-yl]oxy}(1,1,2,2-^2H4)ethyl 4-methylbenzene-1-sulfonate], in data set [1], the IC50 was less than 0.1 µM.

Consider `COc1ccc(COc2ccc3c(c2)CN(c2ccc(=O)[nH]n2)C3=O)nc1` [Compound 6-1, 5-[(5-Methoxypyridin-2-yl)methoxy]-2-(6-oxo-1,6-dihydropyridazin-3-yl)-2,3-dihydro-1H-isoindol-1-one], for which the “Mean Free Brain Fraction (%)” value in data set [2] amounted to 11.3%. Further, the IC50 in data set [1] is less than 0.1 µM.

Turning to `COc1ccc(COc2ccc3c(c2)CN(Cc2ccc(OC)nc2)C3=O)nc1` [Compound 7-1, 5-[(5-Methoxypyridin-2-yl)methoxy]-2-[(6-methoxypyridin-3-yl)methyl]-2,3-dihydro-1H-isoindol-1-one], in data set [1], the half-maximal inhibitory concentration (IC50) lay within 0.1 to 0.5 µM.

In the case of `COc1ccc(COc2cc(F)c3c(c2)C(=O)N(c2ccc(=O)n(C)n2)C3)nc1` [Compound 12-3, 4-Fluoro-6-[(5-methoxypyridin-2-yl)methoxy]-2-(1-methyl-6-oxo-1,6-dihydropyridazin-3-yl)-2,3-dihydro-1H-isoindol-1-one], in data set [2], the “Mean Free Brain Fraction (%)” value turned out to be 5.4%. In data set [1], the half-inhibitory concentration (IC50) was less than 0.1 µM.

Regarding `[2H]C([2H])(F)C([2H])([2H])Oc1ccc(COc2ccc3c(c2)CN(c2ccc(=O)[nH]n2)C3=O)nc1` [Compound 9-2, 5-((5-(2-Fluoroethoxy-1,1,2,2-^2H4)pyridin-2-yl)methoxy)-2-(6-oxo-1,6-dihydropyridazin-3-yl)isoindolin-1-one], the IC50 in data set [1] was less than 0.1 µM.

For `COc1ccc(COc2ccc3c(c2)CN(c2ccc(=O)n(C)n2)C3)nc1` [Comparative Compound 1, reference compound], the “Mean Free Brain Fraction (%)” value in data set [2] is given as 1.3%.

`Cn1nc(N2Cc3cc(OCc4ccc(O)cn4)ccc3C2=O)ccc1=O` [Compound 4-1, 5-[(5-Hydroxypyridin-2-yl)methoxy]-2-(1-methyl-6-oxo-1,6-dihydropyridazin-3-yl)-2,3-dihydro-1H-isoindol-1-one]: the IC50 in data set [1] is less than 0.1 µM.

Regarding `[2H]C([2H])(F)C([2H])([2H])Oc1ccc(COc2cnc3c(c2)CN(c2ccc(=O)n(C)n2)C3=O)nc1` [Compound 12-9, 6-[3-([5-[2-Fluoro(1,1,2,2-^2H4)ethoxy]pyridin-2-yl]methoxy)-7-oxo-5H,6H,7H-pyrrolo[3,4-b]pyridin-6-yl]-2-methyl-2,3-dihydropyridazin-3-one], in data set [1], the IC50 was less than 0.1 µM.
